The results in this text go back to patent publication US20230346773A1, “USE OF PCSK9 INHIBITOR IN PREPARATION OF PRODUCT FOR TREATING MULTIPLE DISEASES” (priority 2020, published 2023).

Marks after values point to notes of the source that are not given here.

Holding throughout (format): in vivo
For one assay, the system named is tyrosinase. Put plainly: Tyrosinase intensity in skin tissue of vitiligo guinea pig model (immunohistochemistry, two-level scoring). The following applies: n = 10; for Color (units): score in brackets for staining colour; for Number of positive cells (units): score in brackets for tyrosinase-positive cells; for Total number (units): sum of positive-cell and colour scores; for Color: tyrosinase staining colour; for Number of positive cells: tyrosinase-positive cells. As to the method:
(§1) 10 in each group, Half male and female. Except for the blank control group, the other groups were smeared with 5% hydroquinone in the hair removal area for decolorization, 0.5 mL each time, twice a day, and the animals in the blank control group were smeared with an equal amount of normal saline every day. […] After modeling, the drug was administered in the above manner, once a day for 30 days.
The excised mouse skin tissue was fixed in 10% formalin dehydrated, cleared in xylene, embedded in paraffin, sectioned, deparaffinized to water, then 50 μL of peroxidase blocking agent (3% H2O2) was added to each section for 10 min to block endogenous peroxidase activity. The sections were immersed in 0.01 mol·L-1PBS buffer and microwaved for 10 min, added with 50 μL mouse anti-human tyrosinase monoclonal antibody, left at 37° C. for 60 min, then added with 50 μL of Elivision reagent, left at 37° C. for 30 min. The sections were then placed in freshly prepared DAB-H2O2 chromogenic solution for color development, rinsed with distilled water, stained with hematoxylin for contrast for 1 min, and sealed with neutral gum. The tyrosinase-positive product was located in the cytoplasm of the cell, shown as yellow or brownish-yellow granules or clumps in the cells under the microscope. The two-level scoring method was used to determine the results. If the number of positive cells was less than 5%, the score was 0; 5%˜25% is 1 point; 2 points for 25%˜50%; 3 points for 50%˜75%; >75% is 4 points. When classified according to staining intensity: 1 point for light yellow; 2 points for yellow or dark yellow; 3 points for brown or brownish yellow. If the sum of the two was less than 2, it was negative (−); 2-3 points as positive (+); 4-5 points as moderately positive (2+); 6-7 points as strongly positive (3+).

Assay [1] deals with vitiligo guinea pig model caused by hydroquinone depigmentation. Put plainly: Vitiligo guinea pig model caused by hydroquinone depigmentation: counts of epidermal MC and melanin-granule-containing basal cells. The following applies: guinea pig skin after hydroquinone decolorization, drug once a day for 30 days, n = 10, x ± s; for Epidermal melanocyte count: average number of MCs in each 100 epidermal basal cells; for Basal cells containing melanin granules count: average number per 100 epidermal basal cells. As to the method: as §1
After the observation, the mice were sacrificed, and the skin tissue on the back about 3 cm×3 cm was cut for histopathological examination.
The excised mouse skin tissue was fixed in 10% formalin for 1 hour, washed with running water for 3-4 min, and placed into a phosphate buffer solution (pH 7.4) containing 0.1% dihydroxyphenylalanine, and let stand at 37° C. for 1 hour. Then it was replaced with fresh Dopa reagent and left at 37° C. for 12 hours, rinsed with running water, and fixed with Bouin's solution continuously for 24 h. After the specimens were taken out, it was rinsed with running water for 4 hours, dehydrated, cleared in xylene, embedded in paraffin, deparaffinized to water, and stained with hematoxylin-eosin for contrast. Dehydrated and routinely mounted. After Dopa-oxidase staining, brownish-black staining was MC positive.
The excised mouse skin tissue was fixed in 10% formalin, dehydrated, cleared with xylene, embedded in paraffin, sectioned, deparaffinized to water, washed with distilled water several times, then stained with Lillie reagent, soaked with ferric chloride and potassium ferricyanide mixed solution for 15-20 minutes, then differentiated with 1% acetic acid aqueous solution for several minutes, washed with distilled water several times, then quickly dehydrated with 95% ethanol and absolute ethanol, cleared in xylene, and sealed with neutral gum. If melanin was dark green after Lillie reagent staining, it was positive.

Assay [2] concerns hair follicles / hair growth in depilated C57BL/6 mice. As to the kind of experiment: Hair growth in C57BL/6 mice after rosin/paraffin depilation. The following applies: for Time from hair growth to the same length as the hair in the non-experimental area / Time to grow new hair / Time to match the length of hair in the non-experimental area: back hair removal area of mice; for Black skin duration / Skin black-turning time / Skin grayish-black-turning time: hair removal area on the back of mice; for Skin black-turning time / Skin grayish-black-turning time: after hair removal. The protocol:
SPF grade C57BL/6 mice were selected and numbered according to their weight. They were randomly divided into compound group 1 (skin applied with 2% R-IMPP solution), compound group 2 (skin applied with 2% PF 06446846 solution), and compound group 3 (skin applied with 2% SBC-115076 solution), compound group 4 (skin applied with 2% SBC-110736 solution), monoclonal antibody group 1 (PCSK9subcutaneous injection monoclonal antibody ab81041, 5 mg/kg·d), monoclonal antibody group 2 (Subcutaneous injection of Evolocumab, 5 mg/kg·d), monoclonal antibody group 3 (subcutaneous injection of Alirocumab, 5 mg/kg·d), PCSK9 RNA interference group-1 (skin applied with 2% PCSK9 small interfering RNA-1 solution), PCSK9 RNA interference Group-2 (skin applied with 2% PCSK9 small interfering RNA-2 solution), PCSK9 RNA interference group-3 (skin applied with 2% PCSK9 small interfering RNA-3 solution), polypeptide group (subcutaneous injection of Abcam company ab32727, 3 mg/kg·d), positive control group (skin applied with 2% minoxidil solution), negative control group (skin applied with 60% ethanol), and model control group (skin applied with 60% ethanol), 10 mice in each group, half male and half female. After the mice were anesthetized with ether, they were coated on the back with a mixture of rosin and paraffin (1:1) after hot melting, and then peeled off after it solidified and hardened. The back of the mouse was cleaned to be hairless and without injuries. The depilation area was about 3 cm×4 cm. From the 2nd day after depilation, the corresponding drugs were applied to the hair removal area, twice a day, 0.5 mL per animal each time, and subcutaneously injected once a week.
From the second day after application, observe the daily color change of the skin on the back of the mice to determine the growth state of the hair follicles and visually observe the hair growth in the depilation area, and score the new hair growth in the depilation area once a day. Five mice in each group were reserved for 40 days of visual observation, and the growth of back hair was recorded.
On the 17th day, five mice in each group were sacrificed by cervical dislocation. The samples were taken from the same part of the back parallel to the spine, fixed with 10% formaldehyde, dehydrated, embedded in paraffin, sectioned, stained with HE, and sealed with neutral gum. Then the histology of hair follicles was observed under light microscope, and morphological staging of hair follicles was performed. According to the international hair cycle scoring method, the hair follicles were scored as follows: 100 points for growth stage VI, 200 points for early regression, 300 points for middle regression, and 400 points for late regression. 50 hair follicles were randomly selected from each mouse, the cycle of the hair follicles in each group was determined, and the average hair cycle score and the percentage of hair follicles in the growth phase VI, early regression, middle regression, and late regression were calculated.

Turning to “Alirocumab [Monoclonal antibody group 3]”, in the assay with tyrosinase, the “Color (units)” value was determined as 4 units, the “Number of positive cells (units)” value is given as 3 units, the “Total number (units)” value is 7 units and the Color result is recorded as “Brownish-yellow”. Moreover, the “Number of positive cells” value in the assay with tyrosinase is recorded as 30%. Moreover, in assay [1], the Epidermal melanocyte count worked out at 43.5 ± 3.6 and the “Basal cells containing melanin granules count” value is on record as 39.6 ± 3.7. In assay [2], the “Time from hair growth to the same length as the hair in the non-experimental area” value (from here on “Time … as the hair in the non-experimental area”) is recorded as 10.13* days, the “Time to grow new hair” value is recorded as 6.06* days, the “Time to match the length of hair in the non-experimental area” value is 16.75* days and the Black skin duration is 13.43* days. For the same compound, in assay [2], the Skin black-turning time is given as 5.35* days and the Skin grayish-black-turning time is 16.65* days.

As for Inclisran [RNA interference group 2], in the assay on tyrosinase, the “Color (units)” value is reported as 2 units, the “Number of positive cells (units)” value is on record as 3 units, the “Total number (units)” value amounted to 5 units and the Color result was “Yellow”. Besides, the “Number of positive cells” value in the assay on tyrosinase turned out to be 30%. Further, in assay [1], the Epidermal melanocyte count is given as 32.6 ± 2.8 and the “Basal cells containing melanin granules count” value was 36.1 ± 3.2. Also, in assay [2], the “Time … as the hair in the non-experimental area” value is 14.12* days, the “Time to grow new hair” value is listed as 6.92* days, the “Time to match the length of hair in the non-experimental area” value is on record as 20.16* days and the Black skin duration is 11.87* days. Also, in assay [2], the Skin black-turning time is 5.66* days and the Skin grayish-black-turning time was 18.23* days.

In the case of `COc1ccc(CCC(=O)N(c2nccc3ccccc23)[C@@H]2CCCNC2)cc1` [Compound group 1, R-IMPP], in the assay with tyrosinase, the “Color (units)” value stood at 2 units, the “Number of positive cells (units)” value is 3 units, the “Total number (units)” value is 5 units and the Color result is given as “Brownish-yellow”. The “Number of positive cells” value with tyrosinase was determined as 30%. In assay [1], the Epidermal melanocyte count is on record as 33.6 ± 2.9 and the “Basal cells containing melanin granules count” value is 36.5 ± 3.8. Further, in assay [2], the “Time … as the hair in the non-experimental area” value is 11.14* days, the “Time to grow new hair” value is listed as 6.92* days, the “Time to match the length of hair in the non-experimental area” value is recorded as 18.06* days and the Black skin duration is 14.29* days. Further, in assay [2], the Skin black-turning time is 5.96* days and the Skin grayish-black-turning time is reported as 20.25* days.

Take `CC(=O)Nc1ccc(C(=O)N2CCN(c3ccc(C)cc3)CC2c2ccccc2)cc1` (stereo not shown) [Compound group 4, SBC-110736]: in the assay with tyrosinase, the “Color (units)” value was determined as 3 units, the “Number of positive cells (units)” value came out at 3 units, the “Total number (units)” value was determined as 6 units and the Color result is on record as “Brownish-yellow”. Further, in the assay on tyrosinase, the “Number of positive cells” value is recorded as 30%. For the same compound, in assay [1], the Epidermal melanocyte count came out at 34.6 ± 2.6 and the “Basal cells containing melanin granules count” value amounted to 36.8 ± 3.7. In assay [2], the “Time … as the hair in the non-experimental area” value is reported as 11.87* days, the “Time to grow new hair” value is listed as 6.98* days, the “Time to match the length of hair in the non-experimental area” value is 18.46* days and the Black skin duration is reported as 12.32* days. Moreover, in assay [2], the Skin black-turning time is recorded as 5.78* days and the Skin grayish-black-turning time is 18.46* days.

In the case of ALN-PCS [RNA interference group 3], in the assay on tyrosinase, the “Color (units)” value stood at 2 units, the “Number of positive cells (units)” value worked out at 3 units, the “Total number (units)” value is listed as 5 units and the Color result is “Yellow”. Moreover, the “Number of positive cells” value in the assay on tyrosinase was determined as 30%. Moreover, in assay [1], the Epidermal melanocyte count was determined as 33.8 ± 2.7 and the “Basal cells containing melanin granules count” value turned out to be 35.3 ± 3.1. Moreover, in assay [2], the “Time … as the hair in the non-experimental area” value is given as 14.26* days, the “Time to grow new hair” value was 6.96* days, the “Time to match the length of hair in the non-experimental area” value is given as 21.38* days and the Black skin duration is 12.16* days. Further, in assay [2], the Skin black-turning time was 6.08* days and the Skin grayish-black-turning time is given as 18.52* days.

For the compound `Cc1cc(C(=O)C2=C(O)C(=O)N(CCCN3CCOCC3)C2c2ccncc2)ccc1OCc1ccccc1` (stereo not shown) [Compound group 3, SBC-115076], in the assay with tyrosinase, the “Color (units)” value came to 3 units, the “Number of positive cells (units)” value was found to be 3 units, the “Total number (units)” value amounted to 6 units and the Color result is reported as “Brownish-yellow”. For the same compound, the “Number of positive cells” value with tyrosinase is reported as 30%. Moreover, in assay [1], the Epidermal melanocyte count is reported as 36.1 ± 2.8 and the “Basal cells containing melanin granules count” value was 36.9 ± 3.6. Also, in assay [2], the “Time … as the hair in the non-experimental area” value was 11.52* days, the “Time to grow new hair” value is reported as 6.95* days, the “Time to match the length of hair in the non-experimental area” value is 19.35* days and the Black skin duration is recorded as 11.65* days. Also, in assay [2], the Skin black-turning time is 5.63* days and the Skin grayish-black-turning time is 18.12* days.

With `O=C(c1ccc(-n2nnc3cccnc32)cc1)N(c1ncccc1Cl)[C@@H]1CCCNC1` [Compound group 2, PF 06446846], in the assay on tyrosinase, the “Color (units)” value came out at 3 units, the “Number of positive cells (units)” value came to 4 units, the “Total number (units)” value is reported as 7 units and the Color entry is “Brownish-yellow”. Moreover, in the assay on tyrosinase, the “Number of positive cells” value is reported as 40%. Also, in assay [1], the Epidermal melanocyte count is reported as 39.3 ± 3.2 and the “Basal cells containing melanin granules count” value was 38.8 ± 3.9. Moreover, in assay [2], the “Time … as the hair in the non-experimental area” value was 10.46* days, the “Time to grow new hair” value is 6.33* days, the “Time to match the length of hair in the non-experimental area” value is 17.69* days and the Black skin duration is given as 10.86* days. Besides, in assay [2], the Skin black-turning time was 5.45* days and the Skin grayish-black-turning time was 17.32* days.
